Measurements published in the NIST ThermoML archive (doi:10.1021/je400803f).

Experiment: xn = mol fraction of the nth substance listed
Conditions: 101 kPa, Liquid, Vibrating tube method

CCNC=O [N-ethylformamide] + CCCC[N+]1(C)CCCC1.FC(F)(F)C(F)(F)[P-](F)(F)(F)(C(F)(F)C(F)(F)F)C(F)(F)C(F)(F)F
mass density [kg/m3]
Conditions	293.15 K	298.15 K	303.15 K	308.15 K	313.15 K	318.15 K	323.15 K
x2 = 0.0355	1046.38	1042.01	1037.61	1033.05	1028.58	1024.03	1019.35
x2 = 0.0753	1128.67	1124.07	1119.47	1114.62	1109.94	1105.19	1100.26
x2 = 0.0995	1169.56	1164.94	1160.15	1155.23	1150.34	1145.54	1140.56
x2 = 0.1508	1240.4	1235.52	1230.53	1225.54	1220.42	1215.44	1210.24
x2 = 0.2001	1293.64	1288.61	1283.5	1278.35	1273.19	1267.97	1262.79
x2 = 0.3045	1375.94	1370.73	1365.53	1360.23	1354.95	1349.61	1344.26
x2 = 0.3996	1429.28	1424.04	1418.68	1413.37	1407.95	1402.56	1397.21
x2 = 0.5028	1472.71	1467.38	1462.01	1456.63	1451.21	1445.76	1440.28
x2 = 0.5527	1489.92	1484.53	1479.12	1473.75	1468.31	1462.86	1457.36
x2 = 0.5989	1504.15	1498.78	1493.4	1487.95	1482.48	1477.03	1471.54
x2 = 0.7015	1531.11	1525.64	1520.2	1514.75	1509.27	1503.82	1498.32
x2 = 0.7983	1552.06	1546.66	1541.23	1535.76	1530.25	1524.73	1519.18
x2 = 0.8866	1568.75	1563.32	1557.82	1552.35	1546.84	1541.33	1535.77
x2 = 0.951	1580.11	1574.66	1569.19	1563.71	1558.18	1552.64	1547.05
